Consider 26 molecules from patent US9981942B2, “Piperidine derivatives having multimodal activity against pain” (LABORATORIOS DEL DR. ESTEVE S.A., priority 2013, dated 2018).

For the first assay, the system named is σ1 receptor and the μ-opiod receptor. Briefly: μ and σ1 dual binding: combined class from the Ki of both radioligand assays. Conditions: combined class for Ki-μ and Ki-σ1; transfected HEK-293 membranes (σ1), transfected CHO-K1 cell membranes (μ). Further details: species or system human; key to μ and σ1 dual binding: +: Both Ki-μ and Ki-σ1>=500 nM; ++: One Ki<500 nM while the other Ki is >=500 nM; +++: Both Ki-μ and Ki-σ1<500 nM; ++++: Both Ki-μ and Ki-σ1<100 nM. The procedure, abridged:
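Classes combine both Ki values, split at 500 nM and 100 nM. Human μ-opioid binding used 1 nM [3H]-DAMGO on CHO-K1 membranes (27 °C, 60 min, pH 7.4, naloxone 10 μM for NSB); human σ1 used 5 nM [3H](+)-pentazocine on HEK-293 membranes (37 °C, 120 min, pH 8, haloperidol 10 μM for NSB).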
With `CC(C)S(=O)(=O)Nc1cccc(C2CCN(Cc3cn(Cc4ncccc4F)nn3)CC2)n1` [Example 209, N-(6-(1-((1-((3-fluoropyridin-2-yl)methyl)-1H-1,2,3-triazol-4-yl)methyl)piperidin-4-yl)pyridin-2-yl)propane-2-sulfonamide], the “μ and σ1 dual binding” value is “++”.
With `CC(C)S(=O)(=O)Nc1cccc(C2CCN(Cc3cn(Cc4ccc(F)cn4)nn3)CC2)n1` [Example 210, N-(6-(1-((1-((5-fluoropyridin-2-yl)methyl)-1H-1,2,3-triazol-4-yl)methyl)piperidin-4-yl)pyridin-2-yl)propane-2-sulfonamide], the “μ and σ1 dual binding” value is “++”.
Take `CCC(=O)Nc1cccc(C2CCN(Cc3cn(-c4ccccc4F)nn3)CC2)n1` [Example 211, N-(6-(1-((1-(2-fluorophenyl)-1H-1,2,3-triazol-4-yl)methyl)piperidin-4-yl)pyridin-2-yl)propionamide]: the “μ and σ1 dual binding” value is on record as “++”.
As to `CC(C)S(=O)(=O)Nc1cccc(C2CCN(Cc3cn(Cc4ncccc4Cl)nn3)CC2)n1` [Example 212, N-(6-(1-((1-((3-chloropyridin-2-yl)methyl)-1H-1,2,3-triazol-4-yl)methyl)piperidin-4-yl)pyridin-2-yl)propane-2-sulfonamide], the “μ and σ1 dual binding” value is given as “++”.
With `CC(C)S(=O)(=O)Nc1cccc(C2CCN(Cc3cn(Cc4ccc(Cl)cn4)nn3)CC2)n1` [Example 213, N-(6-(1-((1-((5-chloropyridin-2-yl)methyl)-1H-1,2,3-triazol-4-yl)methyl)piperidin-4-yl)pyridin-2-yl)propane-2-sulfonamide], the “μ and σ1 dual binding” value is “++”.
Still for that read-out and setting: to `Oc1cccc(C2CCN(Cc3cn(-c4ncccc4O)nn3)CC2)c1` [Example 216, 2-(4-((4-(3-hydroxyphenyl)piperidin-1-yl)methyl)-1H-1,2,3-triazol-1-yl)pyridin-3-ol] belongs “++”; to `COc1cccnc1-n1cc(CN2CCC(c3cccc(O)c3)CC2)nn1` [Example 219, 3-(1-((1-(3-methoxypyridin-2-yl)-1H-1,2,3-triazol-4-yl)methyl)piperidin-4-yl)phenol], “++”; to `Oc1ccc(-n2cc(CN3CCC(c4cccc(O)c4)CC3)nn2)nc1` [Example 220, 6-(4-((4-(3-hydroxyphenyl)piperidin-1-yl)methyl)-1H-1,2,3-triazol-1-yl)pyridin-3-ol], “++”.
As for `c1ccc(Cn2cc(CN3CCC(c4cccc(Nc5nccs5)n4)CC3)nn2)nc1` [Example 230, N-(6-(1-((1-(pyridin-2-ylmethyl)-1H-1,2,3-triazol-4-yl)methyl)piperidin-4-yl)pyridin-2-yl)thiazol-2-amine], the “μ and σ1 dual binding” value is “++”.
`c1ccc(Cn2cc(CN3CCC(c4cccc(Nc5ccccn5)c4)CC3)nn2)nc1` [Example 231, N-(3-(1-((1-(pyridin-2-ylmethyl)-1H-1,2,3-triazol-4-yl)methyl)piperidin-4-yl)phenyl)pyridin-2-amine]: the “μ and σ1 dual binding” value is listed as “++”.

Staying with this assay, now noted: transfected HEK-293 membranes (σ1), transfected CHO-K1 cell membranes (μ).
Take `CC(C)S(=O)(=O)Nc1cccc(C2CCN(Cc3cn(Cc4ccccn4)nn3)CC2)n1` [Example 206, N-(6-(1-((1-(pyridin-2-ylmethyl)-1H-1,2,3-triazol-4-yl)methyl)piperidin-4-yl)pyridin-2-yl)propane-2-sulfonamide]: the Ki range for both μ and σ1 (dual-binding class) was less than 500 nM.
As to `CC(C)S(=O)(=O)Nc1cccc(C2CCN(Cc3cn(-c4ccccc4)nn3)CC2)n1` [Example 207, N-(6-(1-((1-phenyl-1H-1,2,3-triazol-4-yl)methyl)piperidin-4-yl)pyridin-2-yl)propane-2-sulfonamide], the Ki range for both μ and σ1 (dual-binding class) is less than 500 nM.
`CC(C)S(=O)(=O)Nc1cccc(C2CCN(Cc3cn(-c4ccccc4F)nn3)CC2)n1` [Example 208, N-(6-(1-((1-(2-fluorophenyl)-1H-1,2,3-triazol-4-yl)methyl)piperidin-4-yl)pyridin-2-yl)propane-2-sulfonamide]: the Ki range for both μ and σ1 (dual-binding class) was less than 500 nM.
Take `Oc1cccc(C2CCN(Cc3cn(Cc4ccc(F)cn4)cn3)CC2)c1` [Example 215, 3-(1-((1-((5-fluoropyridin-2-yl)methyl)-1H-imidazol-4-yl)methyl)piperidin-4-yl)phenol]: the Ki range for both μ and σ1 (dual-binding class) is less than 500 nM.
As for `COc1ccc(-n2cc(CN3CCC(c4cccc(O)c4)CC3)nn2)nc1` [Example 217, 3-(1-((1-(5-methoxypyridin-2-yl)-1H-1,2,3-triazol-4-yl)methyl)piperidin-4-yl)phenol], the Ki range for both μ and σ1 (dual-binding class) was less than 500 nM.
On the same count and under the same terms, to `Oc1cccc(C2CCN(Cc3cn(-c4ncccc4C(F)(F)F)nn3)CC2)c1` [Example 218, 3-(1-((1-(3-(trifluoromethyl)pyridin-2-yl)-1H-1,2,3-triazol-4-yl)methyl)piperidin-4-yl)phenol] belongs less than 500 nM.
With `Oc1ccc(C2CCN(Cc3cn(-c4ccccc4)nn3)CC2)cc1` [Example 221, 4-(1-((1-phenyl-1H-1,2,3-triazol-4-yl)methyl)piperidin-4-yl)phenol], the Ki range for both μ and σ1 (dual-binding class) was less than 500 nM.
`Oc1ccccc1C1CCN(Cc2cn(-c3ccccc3)nn2)CC1` [Example 222, 2-(1-((1-phenyl-1H-1,2,3-triazol-4-yl)methyl)piperidin-4-yl)phenol]: the Ki range for both μ and σ1 (dual-binding class) is less than 500 nM.
Turning to `Oc1cccc(C2CCN(Cc3cn(-c4cc(F)ccc4F)nn3)CC2)c1` [Example 223, 3-(1-((1-(2,5-difluorophenyl)-1H-1,2,3-triazol-4-yl)methyl)piperidin-4-yl)phenol], the Ki range for both μ and σ1 (dual-binding class) was less than 100 nM.
For `Cc1ccc(F)c(-n2cc(CN3CCC(c4cccc(O)c4)CC3)nn2)c1` [Example 224, 3-(1-((1-(2-fluoro-5-methylphenyl)-1H-1,2,3-triazol-4-yl)methyl)piperidin-4-yl)phenol], the Ki range for both μ and σ1 (dual-binding class) was less than 100 nM.
Regarding `c1ccc(-n2cc(CN3CCC(c4cccc(Nc5nccs5)c4)CC3)nn2)cc1` [Example 225, N-(3-(1-((1-phenyl-1H-1,2,3-triazo1-4-yl)methyl)piperidin-4-yl)phenyl)thiazol-2-amine], the Ki range for both μ and σ1 (dual-binding class) was less than 100 nM.
`Oc1cccc(C2CCN(Cc3cn(-c4ccc(C(F)(F)F)cc4F)nn3)CC2)c1` [Example 226, 3-(1-((1-(2-fluoro-4-(trifluoromethyl)phenyl)-1H-1,2,3-triazol-4-yl)methyl)piperidin-4-yl)phenol]: the Ki range for both μ and σ1 (dual-binding class) is less than 100 nM.
Still for that read-out and setting: to `O=S(=O)(Nc1cccc(C2CCN(Cc3cn(-c4ccccc4F)nn3)CC2)n1)C1CC1` [Example 228, N-(6-(1-((1-(2-fluorophenyl)-1H-1,2,3-triazol-4-yl)methyl)piperidin-4-yl)pyridin-2-yl)cyclopropanesulfonamid] belongs less than 500 nM; to `c1ccc(Cn2cc(CN3CCC(c4cccc(Nc5nccs5)c4)CC3)nn2)nc1` [Example 229, N-(3-(1-((1-(pyridin-2-ylmethyl)-1H-1,2,3-triazol-4-yl)methyl)piperidin-4-yl)phenyl)thiazol-2-amine], less than 500 nM.
Take `Fc1ccc(Nc2cccc(C3CCN(Cc4cn(Cc5ccccn5)nn4)CC3)c2)nc1` [Example 232, 5-fluoro-N-(3-(1-((1-(pyridin-2-ylmethyl)-1H-1,2,3-triazol-4-yl)methyl)piperidin-4-yl)phenyl)pyridin-2-amine]: the Ki range for both μ and σ1 (dual-binding class) is less than 500 nM.
Consider `Cc1ccc2cc(-n3cc(CN4CCC(c5cccc(O)c5)CC4)nn3)ccc2n1` [Example 233, 3-(1-((1-(2-methylquinolin-6-yl)-1H-1,2,3-triazol-4-yl)methyl)piperidin-4-yl)phenol], for which the Ki range for both μ and σ1 (dual-binding class) is less than 500 nM.
